Laboratory results: patent publication US8771983B2, “Method and kit for expressing protein under regulation of the expression from repeated sequence formed by gene amplification, and transformant” (National University of Corporation Hiroshima University, priority 2004, dated 2014)

How the values were obtained:
[1] = test system: expression of d2EGFP in Tet-ON cells (COLO 320DM) transfected with pSFVdhfr/d2EGFP; test: Level of expression of d2EGFP by cell sorter in HSR and DM clones of Tet-ON cells with 5-aza (Example 7); type: cell-based, human; details: 1 week, Doxycycline 1 μg/ml
Method: Fluorescence intensity of these cells were measured by using a cell sorter. The measurement was carried out by sorting 20,000 cells by setting living cells at a gate. The cell sorter used was made by Becton Dickinson, and operated under conditions as described in the manual attached thereto.
In this method for detecting the fluorescence intensity, detection limit was 1, and all fluorescence intensities of 1 or less would be detected as 1. In view of this, a product of a ratio (cell %) of cells of fluorescence intensities of 2 or more in all living cells (10,000 cells) and an average of the fluorescence intensities of the cells having fluorescence intensities of 2 or more was calculated out for each experimental plot. This product is referred to as “accumulated fluorescence intensity” hereinafter and in later Examples and shown in boxed letter in the figures.
By lipofection, the pTet-ON plasmid (Clontech Laboratories Inc.) having Tet-ON gene encoding a transcription activating factor (Tet-ON protein) for promoting TRE-promoter was transfected into human colon cancer COLO 320DM. Transformed cells (hereinafter referred to as “Tet-ON cells”) which stably expressed Tet-ON protein, were selected with Hygromycin.
Next, the pSFVdhfr/d2EGFP plasmid was transfected into the Tet-ON cells by lipofection. The cells thus obtained were selected with 5 μg/ml of Blasticidin for approximately 3 weeks, thereby obtaining a polyclonal population of the stable transformed cells.
The expression of d2EGFP was induced in the polyclonal population by activating TRE-promoter by adding 5 μg/ml of Doxycycline (Clontech Laboratories Inc.) in the medium. FIG. 9 illustrates a result of analysis of the level of the expression of d2EGFP in this case by using a cell sorter. In FIG. 9, the value in parenthesis is an average of fluorescence intensities (i.e., average fluorescence intensity), and boxed value is an accumulated fluorescence intensity. Based on the result of FIG. 9, it was confirmed that the polyclonal population was a population for expressing d2EGFP (average fluorescence intensity: 6.25, accumulated fluorescence intensity: 536).
From the polyclonal population, given 30 clones were obtained by a limiting dilution method that was carried out by inoculating a clone to 6 well plates with such a low cell concentration of 30 cells/ml, and incubating the plates for 10 days to 2 weeks thereby obtaining colonies thereon.
From among the clones, 4 clones having high levels of expression of d2EGFP (Clone 4, Clone 5, Clone 6, and Clone 9) were selected by fluorescence microscopic observation. Mitotic chromosome samples of the 4 clones were prepared. By FISH method, detection for a base sequence derived from the transfected pSFVdhfr/d2EGFP plasmid was carried out. The preparation of mitotic chromosome samples and the FISH method were carried out as described in Shimizu, N., Kanda, T., and Wahl, G. M. Selective capture of acentric fragments by micronuclei provides a rapid method of purifying extrachromosomally amplified DNA. Nature Genet., 12: 65-71, 1996.
For 4 clones, induction with Doxycycline (Clontech Laboratories Inc.; 1 μg/ml) was carried out and 5-aza (0 μM, 1 μM or 3 μM) was added in the medium. After 1 week culturing, the level of expression of d2EGFP in each clone was analyzed by using a cell sorter.

[2] = test system: expression of d2EGFP in human colon cancer COLO 320DM cells; test: Level of expression of d2EGFP by cell sorter in DM clone treated with 5-aza (Example 9); type: cell-based; details: DM clone treated with 3 μM of 5-aza for 3 days, then Doxycycline 1 μg/ml for 2 days
Text: An equimolar mixture of a plasmid (pSFVdhfr/d2EGFP) and pTet-ON plasmid (Clontech Laboratories Inc.) was simultaneously transfected into human colon cancer COLO 320DM cells. The plasmid (pSFVdhfr/d2EGFP) was a plasmid having (a) IR and MAR derived from human DHFR gene locus, (b) Blasticidin tolerance gene, and (c) d2EGFP gene that was under control of TRE-promoter (Tetracycline inducing promoter). Meanwhile, the pTet-ON plasmid was a plasmid having Tet-ON gene encoding the transcription activating factor (Tet-ON protein) of TRE-promoter. The cells were selected with 5 μg/ml of Blasticidin thereby obtaining a polyclonal population of transformed cells. […] In FIG. 20, the detected base sequence derived from the pSFVdhfr/d2EGFP plasmid is indicated by the arrow. […]
In each culture solution of the two clones, 3 μM of 5-aza was added and thereby the clones were treated with 5-aza for 3 days. […] After the culturing, the level of the expression of d2EGFP in each clone was analyzed by a cell sorter. […] This polyclonal population of transformed cells was subjected to the induction of expression of d2EGFP with Doxycycline and a level of the expression of d2EGFP therein was analyzed by using the cell sorter in the same way as described above. […] FIG. 21(a) illustrates the result of the fluorescence intensity measurements of HSR clone two days after the addition of Doxycycline. […]

[3] = clone 4 (HSR), 1 μM of 5-aza in the medium
[4] = clone 4 (HSR), 3 μM of 5-aza in the medium
[5] = clone 5 (HSR), 1 μM of 5-aza in the medium
[6] = clone 5 (HSR), 3 μM of 5-aza in the medium
[7] = clone 6 (HSR), 1 μM of 5-aza in the medium
[8] = clone 6 (HSR), 3 μM of 5-aza in the medium
[9] = clone 9 (DM), 1 μM of 5-aza in the medium
[10] = clone 9 (DM), 3 μM of 5-aza in the medium

Nc1ncn([C@H]2C[C@H](O)[C@@H](CO)O2)c(=O)n1 [5-aza, 5-aza-2′-deoxycytidine]
accumulate fluorescence intensity [1, 3]: 453 | average fluorescence intensity [1, 3]: 5.46 | accumulate fluorescence intensity [1, 4]: 2300 | average fluorescence intensity [1, 4]: 23.76 | accumulate fluorescence intensity [1, 5]: 126 | average fluorescence intensity [1, 5]: 2.23 | accumulate fluorescence intensity [1, 6]: 962 | average fluorescence intensity [1, 6]: 10.44 | accumulate fluorescence intensity [1, 7]: 111 | average fluorescence intensity [1, 7]: 2.09 | accumulate fluorescence intensity [1, 8]: 1000 | average fluorescence intensity [1, 8]: 10.87 | accumulate fluorescence intensity [1, 9]: 13200 | average fluorescence intensity [1, 9]: 131.86 | accumulate fluorescence intensity [1, 10]: 24900 | average fluorescence intensity [1, 10]: 248.60 | accumulated fluorescence intensity [2]: 238113
